Activity calls are given as the source filed them. No rule for the calls is given here.

Mutagenic call data for 3 molecules are collected here from PubChem BioAssay AID1259407 (Chemical Carcinogenesis Research Information System (CCRIS), 2018).

This data set has as its system CCRIS mutagenicity, Ames/micronucleus/aberration tests. The experiment in a line: CCRIS mutagenicity studies.
Where [1] appears, read: Test System: AMES SALMONELLA TYPHIMURIUM, Strain/Indicator: TA98, Metabolic Activation: RAT, LIVER, S-9, AROCLOR 1254, Method: STANDARD PLATE.
Setting [2] is: Test System: AMES SALMONELLA TYPHIMURIUM, Strain/Indicator: TA100, Metabolic Activation: NONE, Method: STANDARD PLATE.
Where [3] appears, read: Test System: AMES SALMONELLA TYPHIMURIUM, Strain/Indicator: TA100, Metabolic Activation: RAT, LIVER, S-9, AROCLOR 1254, Method: STANDARD PLATE.

`c1ccc2cc3ccccc3cc2c1`: the mutagenic call is “active; positive (structural changes and ploidy). weak response for ploidy” (End Point: In vitro chromosomal aberrations, Test System: Chinese hamster lung (CHL/IU) cells, Metabolic Activation: Rat, Liver, S9, Phenobarbital and 5,6-benzoflavone); “inactive; negative” (Test System: AMES SALMONELLA TYPHIMURIUM, Strain/Indicator: TA97, Metabolic Activation: NONE, Method: STANDARD PLATE); “active; positive” (Test System: AMES SALMONELLA TYPHIMURIUM, Strain/Indicator: TA97, Metabolic Activation: RAT, LIVER, S-9, PCB, Method: STANDARD PLATE); “inactive; negative” (Test System: AMES SALMONELLA TYPHIMURIUM, Strain/Indicator: TA98, Metabolic Activation: NONE, Method: PREINCUBATION); “inactive; negative” (Test System: AMES SALMONELLA TYPHIMURIUM, Strain/Indicator: TA98, Metabolic Activation: NONE, Method: STANDARD PLATE); “inactive; negative” (Test System: AMES SALMONELLA TYPHIMURIUM, Strain/Indicator: TA98, Metabolic Activation: RAT LIVER S-9, PHENOBARBITAL AND BETA-NAPHTHOFLAVONE, Method: PREINCUBATION). Also, the mutagenic call is “inactive; negative” under setting [1]; “inactive; negative” (Test System: AMES SALMONELLA TYPHIMURIUM, Strain/Indicator: TA98, Metabolic Activation: RAT, LIVER, S-9, PCB, Method: STANDARD PLATE); “inactive; negative” under setting [2]; “inactive; negative” (Test System: AMES SALMONELLA TYPHIMURIUM, Strain/Indicator: TA100, Metabolic Activation: RAT LIVER S-9, PHENOBARBITAL AND BETA-NAPHTHOFLAVONE, Method: PREINCUBATION); “inactive; negative” under setting [3]; “inactive; negative” (Test System: AMES SALMONELLA TYPHIMURIUM, Strain/Indicator: TA100, Metabolic Activation: RAT, LIVER, S-9, PCB, Method: STANDARD PLATE). Moreover, the mutagenic call is “inactive; negative” (Test System: AMES SALMONELLA TYPHIMURIUM, Strain/Indicator: TA1535, Metabolic Activation: NONE, Method: PREINCUBATION); “inactive; negative” (Test System: AMES SALMONELLA TYPHIMURIUM, Strain/Indicator: TA1535, Metabolic Activation: RAT LIVER S-9, PHENOBARBITAL AND BETA-NAPHTHOFLAVONE, Method: PREINCUBATION); “inactive; negative” (Test System: AMES SALMONELLA TYPHIMURIUM, Strain/Indicator: TA1537, Metabolic Activation: NONE, Method: PREINCUBATION); “inactive; negative” (Test System: AMES SALMONELLA TYPHIMURIUM, Strain/Indicator: TA1537, Metabolic Activation: RAT LIVER S-9, PHENOBARBITAL AND BETA-NAPHTHOFLAVONE, Method: PREINCUBATION); “inactive; negative” (Test System: AMES SALMONELLA TYPHIMURIUM, Strain/Indicator: TA1538, Metabolic Activation: NONE, Method: PREINCUBATION); “inactive; negative” (Test System: AMES SALMONELLA TYPHIMURIUM, Strain/Indicator: TA1538, Metabolic Activation: RAT LIVER S-9, PHENOBARBITAL AND BETA-NAPHTHOFLAVONE, Method: PREINCUBATION). Moreover, the mutagenic call runs as follows: (Test System: E. COLI, Strain/Indicator: WP2 UVRA, Metabolic Activation: HAMSTER, LIVER, S-9, AROCLOR 1254, Method: STANDARD PLATE) “inactive; negative”; (Test System: E. COLI, Strain/Indicator: WP2 UVRA, Metabolic Activation: HAMSTER, LIVER, S-9, Method: STANDARD PLATE) “inactive; negative”; (Test System: E. COLI, Strain/Indicator: WP2 UVRA, Metabolic Activation: MOUSE, LIVER, S-9, AROCLOR 1254, Method: STANDARD PLATE) “inactive; negative”; (Test System: E. COLI, Strain/Indicator: WP2 UVRA, Metabolic Activation: MOUSE, LIVER, S-9, Method: STANDARD PLATE) “inactive; negative”; (Test System: E. COLI, Strain/Indicator: WP2 UVRA, Metabolic Activation: NONE, Method: STANDARD PLATE) “inactive; negative”; (Test System: E. COLI, Strain/Indicator: WP2 UVRA, Metabolic Activation: RAT, LIVER, S-9, AROCLOR 1254, Method: STANDARD PLATE) “inactive; negative”. The mutagenic call reads like this: (Test System: E. COLI, Strain/Indicator: WP2 UVRA, Metabolic Activation: RAT, LIVER, S-9, Method: STANDARD PLATE) “inactive; negative”; (Test System: E.COLI, Strain/Indicator: WP2UVRA, Metabolic Activation: NONE, Method: PREINCUBATION) “inactive; negative”; (Test System: E.COLI, Strain/Indicator: WP2UVRA, Metabolic Activation: RAT LIVER S-9, PHENOBARBITAL AND BETA-NAPHTHOFLAVONE, Method: PREINCUBATION) “inactive; negative”; (Test System: MOUSE LYMPHOMA, Strain/Indicator: L5178Y (TK+/TK-), Metabolic Activation: NONE, Method: SUSPENSION/PLATE) “inactive; negative”; (Test System: MOUSE LYMPHOMA, Strain/Indicator: L5178Y (TK+/TK-), Metabolic Activation: RAT, LIVER, S-9, AROCLOR 1254, Method: SUSPENSION/PLATE) “active; positive”; (Test System: MOUSE LYMPHOMA, Strain/Indicator: L5178Y (TK+/TK-), Metabolic Activation: RAT, LIVER, S-9, Method: SUSPENSION/PLATE) “active; positive”.
Take `CSCC[C@H](NC(=O)COc1ccc(Cl)cc1Cl)C(=O)O`: the mutagenic call (Test System: AMES SALMONELLA TYPHIMURIUM, Strain/Indicator: TA97, Metabolic Activation: RAT, LIVER, S-9, AROCLOR 1254, Method: STANDARD PLATE) was “inactive; negative”; the mutagenic call (Test System: AMES SALMONELLA TYPHIMURIUM, Strain/Indicator: TA97, Metabolic Activation: WOODCHUCK, LIVER, S-9, 3-METHYLCHOLANTHRENE, Method: STANDARD PLATE) is “inactive; negative”; the mutagenic call under setting [1] was “inactive; negative”; the mutagenic call (Test System: AMES SALMONELLA TYPHIMURIUM, Strain/Indicator: TA98, Metabolic Activation: WOODCHUCK, LIVER, S-9, 3-METHYLCHOLANTHRENE, Method: STANDARD PLATE) was “inactive; negative”; the mutagenic call under setting [3] was “inactive; negative”; the mutagenic call (Test System: AMES SALMONELLA TYPHIMURIUM, Strain/Indicator: TA100, Metabolic Activation: WOODCHUCK, LIVER, S-9, 3-METHYLCHOLANTHRENE, Method: STANDARD PLATE) was “inactive; negative”. The mutagenic call (Test System: AMES SALMONELLA TYPHIMURIUM, Strain/Indicator: TA1535, Metabolic Activation: RAT, LIVER, S-9, AROCLOR 1254, Method: STANDARD PLATE) was “inactive; negative”; the mutagenic call (Test System: AMES SALMONELLA TYPHIMURIUM, Strain/Indicator: TA1535, Metabolic Activation: WOODCHUCK, LIVER, S-9, 3-METHYLCHOLANTHRENE, Method: STANDARD PLATE) is “inactive; negative”; the mutagenic call (Test System: AMES SALMONELLA TYPHIMURIUM, Strain/Indicator: TA1538, Metabolic Activation: RAT, LIVER, S-9, AROCLOR 1254, Method: STANDARD PLATE) is “inactive; negative”; the mutagenic call (Test System: AMES SALMONELLA TYPHIMURIUM, Strain/Indicator: TA1538, Metabolic Activation: WOODCHUCK, LIVER, S-9, 3-METHYLCHOLANTHRENE, Method: STANDARD PLATE) is “inactive; negative”.
For the molecule `COc1cc2c(c3oc(=O)c4c(c13)CC[C@@H]4O)[C@@H]1C=CO[C@@H]1O2`, the mutagenic call is, setting by setting: (Test System: AMES SALMONELLA TYPHIMURIUM, Strain/Indicator: TA98, Metabolic Activation: RAT, LIVER, S-9, PHENOBARBITAL, Method: STANDARD PLATE) “active; positive”; (Test System: AMES SALMONELLA TYPHIMURIUM, Strain/Indicator: TA98, Metabolic Activation: RAT, LIVER, S-9, Method: STANDARD PLATE) “active; positive”; under setting [2], “inactive; negative”; under setting [3], “active; positive”; (Test System: UDS HUMAN FIBROBLASTS, Strain/Indicator: THY INCORP (NON-S-PHASE), Metabolic Activation: MOUSE, LIVER, S-9, Method: AUTORADIOGRAPHY) “active; positive”; (Test System: UDS HUMAN FIBROBLASTS, Strain/Indicator: THY INCORP (NON-S-PHASE), Metabolic Activation: RAT, LIVER, S-9, Method: AUTORADIOGRAPHY) “active; positive”.
